Reference: patent US20220347173A1, “METHODS OF TREATING LIVER FIBROSIS USING CALPAIN INHIBITORS” (Blade Therapeutics, Inc., priority 2018, published 2022)

What was measured:
[1] = system: CDAHFD rat model of non-alcoholic steatohepatitis (NASH); assay: Rat choline-deficient, amino acid-defined high fat diet (CDAHFD) model of NASH; format: in vivo, Male Wistar rats; details: for mRNA expression of CTGF: MC BID 42.89±32.82; for mRNA expression of IL-6: MC BID 54.89±47.23; for mRNA expression of Colla1: MC BID 106.6±59.97; for SMA (Acta2) protein expression: MC QD 5.82±0.67
Source text: A rat choline-deficient, amino acid-defined high fat diet (CDAHFD) model of non-alcoholic steatohepatitis (NASH) reproduces key features of the human disease. This model was used to examine the anti-fibrotic effects of Compound 405 (shown in Table 1a) in the CDAHFD rat model.
Male Wistar rats (Charles River Laboratories) were randomly assigned to receive the following treatments: Group 1 (n=8) served as a healthy control and were fed normal chow for 12 weeks; Group 2 (n=8) served as a disease control and was fed a CDAHFD and received once daily (QD) oral gavage treatment with vehicle Methylcellulose (MC) beginning at week 5 post CDAHFD, Group 3 (n=8) served as a disease control and was fed a CDAHFD and received twice daily (BID) oral gavage treatment with vehicle Methylcellulose (MC) beginning at week 5 post CDAHFD, Group 4 (n=8) was fed a CDAHFD and received QD oral gavage treatment with Compound 405 (200 mg/kg) beginning at week 5 post CDAHFD, Group 5 (n=8) was fed a CDAHFD and received BID oral gavage treatment with Compound 405 (100 mg/kg) beginning at week 5 post CDAHFD, Group 6 (n=8) was fed a CDAHFD and received QD oral gavage treatment with Compound 405 (60 mg/kg) beginning at week 5 post CDAHFD, Group 7 (n=8) was fed a CDAHFD and received BID oral gavage treatment with Compound 405 (30 mg/kg) beginning at week 5 post CDAHFD. At the end of the study (12 weeks), liver tissue and serum was collected for further analysis. A part of the liver was used for histological analysis and the spare liver from each individual animal was snap frozen on liquid nitrogen and stored at −80° C. Serum was collected to measure ALT,

[2] = system: CCl4-induced liver fibrosis in male BALB/c mice; assay: Carbon Tetrachloride (CCl4)-induced liver fibrosis model; format: in vivo
Experimental: This study is performed to evaluate the effects of calpain compounds disclosed herein on a Carbon Tetrachloride (CCl4)-induced liver fibrosis in male BALB/c mice. Liver fibrosis is induced in mice by the administration of CCl4 twice weekly for four weeks. CCl4 administered animals are treated with compounds disclosed herein in a therapeutic treatment mode on day 14 post initiation of CCl4 injection and continued until study termination. Study is terminated 96 hours following the last CCl4 administration, i.e., on day 32 post CCl4 administration. Compounds described herein show an improvement in fibrosis score and no effect on liver enzymes, liver weight or body weight compared to vehicle.
Carbon tetrachloride (CCl4) is purchased from Sigma (cat #319961). To induce liver fibrosis, mice are administered CCl4 (1:1, CCl4:mineral oil) via intraperitoneal (ip) injection at a dose volume of 1 ml/kg body weight. On every CCl4 administration day animals are weighed prior to administration of CCl4 and the dose volume is adjusted as per body weight of individual animal. Animals are administered CCl4: mineral oil twice weekly i.e. every Monday and Thursday for four weeks, 2 hours post morning treatment. The final CCl4 injection is received on day 28 post first CCl4 injection.
Animals are bled via sub-mandibular route on day-4 prior to study initiation, and on day 13, post CCl4 administration, a day before the therapeutic treatment began. Plasma is prepared and stored at −20° C. until it is analyzed. Upon study termination day 32 post CCl4 administration, animals are bled via cardiac puncture. Serum is prepared and stored at −20° C. until shipped to contract company for liver enzyme panel analysis. […]
The procedures described above were followed using Compound 405 as a test compound administered at 30 mg/kg BID or 100 mg/kg BID. Body weights were measured prior to every CCl4 administration. […] Average liver weight of 2.24+/−0.06 g was recorded in animals treated with vehicle compared to no CCl4 administered control mice 1.45+/−0.03 g (p<0.0001).

[3] = BID oral 100 mg/kg and 30 mg/kg, serum
[4] = QD oral 200 mg/kg and 60 mg/kg, serum

## Cc1nc(-c2ccccc2F)c(C(=O)NC(Cc2ccccc2)C(=O)C(N)=O)o1 (centres unmarked) [Compound 405]
[1]; 30 mg/kg BID, p<0.01
  mRNA expression of CTGF: 3.55±1.35
  mRNA expression of IL-6: 2.80±1.35
  mRNA expression of Colla1: 13.37±2.53
[1]; 30 mg/kg BID, MC BID 73.65±37.51, p<0.01
  mRNA expression of SMA: 11.46±2.02
[1]; 30 mg/kg BID, p<0.05
  Liver Weight (as a percent of total weight): 6.6 ± 0.3%
[1]; 60 mg/kg QD
  fibrosis as measured by CPA: did not significantly decrease
  fibrosis as measured by hydroxyproline: did not significantly decrease
[1]; 60 mg/kg QD, p<0.01
  SMA (Acta2) protein expression: 2.40±1.16%
[1]; 100 mg/kg BID
  collagen deposition: reduced
[1]; 100 mg/kg BID, MC BID 7.08±1.36%, p<0.01
  SMA (Acta2) protein expression in livers: 2.01±1.14%
[1]; 100 mg/kg BID, p<0.05
  mRNA expression of CTGF: 3.84±2.24
  Liver Weight (as a percent of total weight): 6.6 ± 0.8%
[1]; 100 mg/kg BID, p<0.01
  mRNA expression of IL-6: 15.81±9.01
  mRNA expression of Colla1: 35.76±33.84
[1]; 100 mg/kg BID, MC BID 706.9±173.5 nmol/L, p<0.05
  hydroxyproline: 458.2 ± 146 nmol/L
[1]; 200 mg/kg QD, p<0.01
  SMA (Acta2) protein expression: 1.7±0.58%
[1]; 200 mg/kg QD, MC QD 11.28±3.50%, liver at 12 weeks
  collagen proportional area (CPA): 6.08±1.69%
[1]; 200 mg/kg QD, MC QD 731.3±165.9 nmol/L, p<0.05
  hydroxyproline: 495.1 ± 113.9 nmol/L
[1]; 200 mg/kg or 60 mg/kg QD
  pro-fibrotic or inflammatory gene expression (mRNA): did not significantly decrease
[1]; BID oral 100 mg/kg and 30 mg/kg
  spleen weight (as a percent of total weight): did not affect
[1]; BID oral 100 mg/kg and 30 mg/kg, weeks 5-12
  body weight: did not affect
[1]; [3]
  albumin levels: did not alter
  level of blood transaminases (U/L) including ALT, AST, and ALP vs MC BID: did not change
[1]; BID study, serum
  Total bilirubin: did not change significantly
[1]; BID treatment
  expression of Calpain1: did not change
  expression of Calpain 2: did not change
  liver fat content (histological analysis of steatosis): did not change
[1]; QD oral 200 mg/kg and 60 mg/kg, weeks 5-12
  body weight relative to vehicle (methyl cellulose) control: did not alter
[1]; [4]
  albumin levels: did not change
  level of blood transaminases (ALT, AST, ALP) vs MC QD: did not alter
[1]; QD study, serum
  Total bilirubin: did not change significantly
[1]; QD treatment
  liver fat content (histological analysis of steatosis): did not change
[2]; CCl4-treated mice, oral 30 mg/kg BID or 100 mg/kg BID from day 14, day 32
  Fibrosis score (Picrosirius Red-stained liver sections, polarized light): statistically significant reduction
[2]; CCl4-treated mice, oral BID from day 14
  length and thickness of the collagen fibers (PSR-stained liver sections): decrease
[2]; dosed therapeutically at 100 mg/kg, twice a day
  fibrosis: significantly reduced
